The record followed here is US10953012B2, “Heterocyclic compounds for the inhibition of pask” (BioEnergenix LLC, priority 2011, dated 2021).

For test [1], the target named is PASK (UniProt #Q96RG2; residues 879-1323) (Homo sapiens (Human), UniProt Q96RG2). The experiment in a line: PASK ATP Radiochemical Assay. The test is classed as biochemical. Conditions: 33P-ATP radiochemical assay; read-out: IC50 Kinase Domain. On the procedure: PASK ATP Radiochemical Assay Purified PASK (UniProt #Q96RG2; human recombinant N-terminal GST tagged construct, residues 879-1323) from insect cells (final concentration 5 nM) is added to freshly prepared Base Reaction Buffer containing 20 mM HEPES (pH 7.5), 10 mM MgCl2, 1 mM EGTA, 0.02% Brij35, 0.02 mg/ml BSA, 0.1 mM Na3VO4, 2 mM DTT, 1% DMSO and Myelin Basic Protein (20 μM final). Test compounds in DMSO are then added and the mixture, followed by delivery of ^33P-ATP (specific activity 0.01 μCi/μl final) to initiate the reaction. The kinase reaction is incubated for 120 min at room temperature. The entire reaction mixture is washed through onto a P81 Phosphocellulose paper and washed three times for 10 minutes in 75 mM phosphoric acid and once in methanol prior to drying and scintillation counting.
PASK (UniProt #Q96RG2; residues 879-1323) (Homo sapiens (Human), UniProt Q96RG2), sequence (Q96RG2 879-1323): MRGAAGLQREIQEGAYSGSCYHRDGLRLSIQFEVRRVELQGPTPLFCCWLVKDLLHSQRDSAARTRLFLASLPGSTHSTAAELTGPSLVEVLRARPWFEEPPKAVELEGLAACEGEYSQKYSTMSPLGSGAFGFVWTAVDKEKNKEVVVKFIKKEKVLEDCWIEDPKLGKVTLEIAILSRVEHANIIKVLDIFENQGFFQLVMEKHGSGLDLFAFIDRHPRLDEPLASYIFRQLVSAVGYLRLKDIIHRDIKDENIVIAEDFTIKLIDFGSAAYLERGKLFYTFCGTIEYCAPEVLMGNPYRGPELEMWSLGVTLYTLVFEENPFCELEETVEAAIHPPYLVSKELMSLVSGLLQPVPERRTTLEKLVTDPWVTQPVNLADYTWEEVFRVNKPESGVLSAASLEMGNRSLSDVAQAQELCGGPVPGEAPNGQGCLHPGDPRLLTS

The next test addresses CK2a2 (Homo sapiens (Human), UniProt P19784). Briefly: Biochemical Assay for CK2 Activity. Conditions: 33P-ATP radiochemical assay; read-out: IC50 CK2 a2. On the procedure:
Biochemical Assay for CK2 Activity
Purified CK2a2 (NP_001887; human full-length protein, GST tagged) from insect cells (final concentration 1.2 nM) is added to freshly prepared Base Reaction Buffer containing 20 mM Hepes (pH 7.5), 10 mM MgCl2, 1 mM EGTA, 0.02% Brij35, 0.02 mg/ml BSA, 0.1 mM Na3VO4, 2 mM DTT, 1% DMSO and CK2 sub [RRRDDDSDDD] (20 μM final). Test compounds in DMSO are then added and the mixture, followed by delivery of ^33P-ATP (specific activity 0.01 μCi/μl final) to initiate the reaction. The kinase reaction is incubated for 120 min at room temperature. The entire reaction mixture is washed through onto a P81 Phosphocellulose paper and washed three times for 10 minutes in 75 mM phosphoric acid and once in methanol prior to drying and scintillation counting.

In test [2] the target is PASK (Homo sapiens (Human), UniProt Q96RG2). The experiment in a line: PAS Kinase FRET Assay. The test is classed as biochemical. Conditions: TR-FRET assay; read-out: IC50 Kinase Domain. The method, boiled down:
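Reaction buffer: 50 mM HEPES, 10 mM MgCl2, 1 mM EGTA, 2 mM DTT, 0.01% Tween-20. Test compounds (eleven-point series prepared at 4× final) preceded PASK and substrate/ATP. Reaction ran 2 h at 25 °C in the dark, then stopped. Phospho-ULight peptide detected by Eu-antibody TR-FRET, 665/615 nm ratio.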
Background: Time-resolved FRET reads energy transfer from a long-lived donor to a nearby acceptor.

PASK (Homo sapiens (Human), UniProt Q96RG2), sequence (Q96RG2 999-1251): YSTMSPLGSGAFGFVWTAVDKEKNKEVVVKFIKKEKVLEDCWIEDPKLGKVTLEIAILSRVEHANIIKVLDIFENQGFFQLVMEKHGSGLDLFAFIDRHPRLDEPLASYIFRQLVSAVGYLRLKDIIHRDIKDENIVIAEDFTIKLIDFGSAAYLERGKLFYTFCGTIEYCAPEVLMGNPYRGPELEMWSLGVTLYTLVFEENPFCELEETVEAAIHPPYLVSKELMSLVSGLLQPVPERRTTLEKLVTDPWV
CK2a2, sequence (P19784 whole entry): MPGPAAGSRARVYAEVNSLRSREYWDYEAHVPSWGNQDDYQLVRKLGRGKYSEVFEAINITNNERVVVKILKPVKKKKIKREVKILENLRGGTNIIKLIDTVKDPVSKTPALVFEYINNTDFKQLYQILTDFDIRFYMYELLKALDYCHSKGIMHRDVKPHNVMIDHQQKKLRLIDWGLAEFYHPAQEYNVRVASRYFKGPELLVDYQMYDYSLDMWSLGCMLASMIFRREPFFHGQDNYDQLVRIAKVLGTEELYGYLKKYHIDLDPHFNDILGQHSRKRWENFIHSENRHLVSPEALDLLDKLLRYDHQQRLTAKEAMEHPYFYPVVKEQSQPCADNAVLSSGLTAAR

In the case of `O=c1cc(-c2ccc3c(c2)OCCO3)[nH]c2c(-c3ccc(N4CCCC4)nc3)cnn12` [Example 119, 5-(2,3-Dihydrobenzo[b][1,4]dioxin-6-yl)-3-(6-(pyrrolidin-1-yl)pyridin-3-yl)pyrazolo[1,5-a]pyrimidin-7(4H)-one], the IC50 on PASK [1], at CK2a2 and on PASK [2] was no more than 10 µM in each case.
Consider `COc1ccc2c(c1)CCc1c-2[nH]c2c(-c3ccccn3)cnn2c1=O` [Example 121, 3-Methoxy-11-(pyridin-2-yl)-5,6-dihydrobenzo[h]pyrazolo[5,1-b]quinazolin-7(12H)-one], for which the half-inhibitory concentration (IC50) on PASK [1], at CK2a2 and on PASK [2] was no more than 10 µM throughout.
Turning to `COc1ccc(-c2cc(=O)n3nc(O)c(-c4ccccn4)c3[nH]2)c(OC)c1` [Example 122, 5-(2,4-Dimethoxyphenyl)-2-hydroxy-3(pyridin-2-yl)pyrazolo[1,5-a]pyrimidin-7(4H)-one], the IC50 at PASK [1] was no more than 10 µM; at CK2a2 it was no less than 10 µM; at PASK [2], no more than 10 µM.
As for `O=c1cc(-c2ccc(Cl)cc2)[nH]c2c(-c3ccccn3)c(O)nn12` [Example 123, 5-(4-Chlorophenyl)-2-hydroxy-3-(pyridin-2-yl)pyrazolo[1,5-a]pyrimidin-7(4H)-one], the values for the IC50 on PASK [1], on CK2a2 and at PASK [2] were no more than 10 µM, no less than 10 µM and no more than 10 µM, respectively.
As to `O=c1cc(-c2ccc(F)cc2)[nH]c2c(-c3ccccn3)cnn12` [Example 125, 5-(4-Fluorophenyl)-3-(pyridin-2-yl)pyrazolo[1,5-a]pyrimidin-7(4H)-one], the IC50 at PASK [1], at CK2a2 and on PASK [2] was no more than 10 µM in each case.
As to `O=c1cc(-c2ccc(Cl)c(Cl)c2)[nH]c2c(-c3ccccn3)cnn12` [Example 126, 5-(3,4-Dichlorophenyl)-3-(pyridin-2-yl)pyrazolo[1,5-a]pyrimidin-7(4H)-one], the IC50 at PASK [1], at CK2a2 and at PASK [2] was no more than 10 µM throughout.
On to `O=c1cc(-c2ccc3occc3c2)[nH]c2c(-c3ccccc3)c(O)nn12` [Example 127, 5-(Benzofuran-5-yl)-2-hydroxy-3-phenylpyrazolo[1,5-a]pyrimidin-7(4H)-one], for which the concentration for half-maximal inhibition (IC50) at PASK [1], at CK2a2 and at PASK [2] was no more than 10 µM each time.
With `O=c1cc(-c2ccc(Cl)cc2)[nH]c2c(-c3cccnc3)c(O)nn12` [Example 128, 5-(4-Chlorophenyl)-2-hydroxy-3-(pyridin-3-yl)pyrazolo[1,5-a]pyrimidin-7(4H)-one], the half-maximal inhibitory concentration (IC50) at PASK [1] was no more than 10 µM; on CK2a2, no less than 10 µM; at PASK [2] it was no more than 10 µM.
On to `O=c1cc(-c2ccc3c(c2)CCO3)[nH]c2c(-c3ccccn3)c(O)nn12` [Example 129, 5-(2,3-Dihydrobenzofuran-5-yl)-2-hydroxy-3-(pyridin-2-yl)pyrazolo[1,5-a]pyrimidin-7(4H)-one], for which the IC50 is no more than 10 µM on PASK [1], no less than 10 µM at CK2a2 and no more than 10 µM on PASK [2].
As to `O=c1cc(-c2ccc3c(c2)CCO3)[nH]c2c(-c3cccnc3)c(O)nn12` [Example 130, 5-(2,3-Dihydrobenzofuran-5-yl)-2-hydroxy-3-(pyridin-3-yl)pyrazolo[1,5-a]pyrimidin-7(4H)-one], the IC50 at PASK [1], on CK2a2 and on PASK [2] was no more than 10 µM each time.
`O=c1cc(-c2ccc3occc3c2)[nH]c2c(-c3ccccn3)c(O)nn12` [Example 131, 5-(Benzofuran-5-yl)-2-hydroxy-3-(pyridin-2-yl)pyrazolo[1,5-a]pyrimidin-7(4H)-one]: the IC50 at PASK [1], at CK2a2 and at PASK [2] was no more than 10 µM throughout.
On to `O=c1cc(-c2ccc3c(c2)OCO3)[nH]c2c(Cc3ccccc3)cnn12` [Example 133, 5-(Benzo[d][1,3]dioxol-5-yl)-3-benzylpyrazolo[1,5-a]pyrimidin-7(4H)-one], for which the IC50 at PASK [1], at CK2a2 and at PASK [2] was no more than 10 µM in each case.
Consider `COc1ccccc1-c1cc(=O)n2ncc(-c3ccccn3)c2[nH]1` [Example 135, 5-(2-Methoxyphenyl)-3-(pyridin-2-yl)pyrazolo[1,5-a]pyrimidin-7(4H)-one], for which the IC50 on PASK [1], on CK2a2 and on PASK [2] was no more than 10 µM throughout.
Turning to `O=c1cc(-c2ccc(F)cc2)[nH]c2c(-c3ccccn3)c(O)nn12` [Example 137, 5-(4-Fluorophenyl)-2-hydroxy-3-(pyridin-2-yl)pyrazolo[1,5-a]pyrimidin-7(4H)-one], the IC50 on PASK [1] is no more than 10 µM; on CK2a2, no less than 10 µM; on PASK [2] it was no more than 10 µM.
As for `Nc1nn2c(=O)cc(-c3ccc(Cl)cc3)[nH]c2c1-c1ccccc1` [Example 141, 2-Amino-5-(4-chlorophenyl)-3-phenylpyrazolo[1,5-a]pyrimidin-7(4H)-one], the 50% inhibitory concentration (IC50) on PASK [1], at CK2a2 and on PASK [2] was no more than 10 µM throughout.
As for `Nc1nn2c(=O)cc(-c3ccc4c(c3)OCCO4)[nH]c2c1-c1ccccc1` [Example 142, 2-Amino-5-(2,3-dihydrobenzo[b][1,4]dioxin-6-yl)-3-phenylpyrazolo[1,5-a]pyrimidin-7(4H)-one], the IC50 at PASK [1], at CK2a2 and on PASK [2] was no more than 10 µM throughout.
Consider `CN(Cc1ccccc1)C(=O)c1cnn2c(=O)cc(-c3ccc4c(c3)OCCO4)[nH]c12` [Example 143, N-Benzyl-5-(2,3-dihydrobenzo[b][1,4]dioxin-6-yl)-N-methyl-7-oxo-4,7-dihydropyrazolo[1,5-a]pyrimidine-3-carboxamide], for which the IC50 on PASK [1], at CK2a2 and on PASK [2] was no more than 10 µM in each case.
On to `O=C(NCc1ccccc1)c1cnn2c(=O)cc(-c3ccc(Cl)cc3)[nH]c12` [Example 144, N-Benzyl-5-(4-chlorophenyl)-7-oxo-4,7-dihydropyrazolo[1,5-a]pyrimidine-3-carboxamide], for which the 50% inhibitory concentration (IC50) on PASK [1], at CK2a2 and at PASK [2] was no more than 10 µM each time.
Take `CCCNC(=O)c1cnn2c(=O)cc(-c3ccc4c(c3)OCCO4)[nH]c12` [Example 145, 5-(2,3-Dihydrobenzo[b][1,4]dioxin-6-yl)-7-oxo-N-propyl-4,7-dihydropyrazolo[1,5-a]pyrimidine-3-carboxamide]: the half-inhibitory concentration (IC50) at PASK [1], on CK2a2 and at PASK [2] was no more than 10 µM throughout.
As to `O=c1cc(-c2ccc3occc3c2)[nH]c2c(-c3cccnc3)c(O)nn12` [Example 147, 5-(Benzofuran-5-yl)-2-hydroxy-3-(pyridin-3-yl)pyrazolo[1,5-a]pyrimidin-7(4H)-one], the IC50 at PASK [1], on CK2a2 and on PASK [2] was no more than 10 µM throughout.
With `Nc1nn2c(=O)cc(-c3ccc4c(c3)OCCO4)[nH]c2c1-c1ccccn1` [Example 148, 2-Amino-5-(2,3-dihydrobenzo[b][1,4]dioxin-6-yl)-3-(pyridin-2-yl)pyrazolo[1,5-a]pyrimidin-7(4H)-one], the half-inhibitory concentration (IC50) at PASK [1], at CK2a2 and on PASK [2] was no more than 10 µM in each case.
Regarding `Nc1nn2c(=O)cc(-c3ccc4c(c3)OCO4)[nH]c2c1-c1ccccn1` [Example 150, 2-Amino-5-(benzo[d][1,3]dioxol-5-yl)-3-(pyridin-2-yl)pyrazolo[1,5-a]pyrimidin-7(4H)-one], the half-inhibitory concentration (IC50) at PASK [1], on CK2a2 and at PASK [2] was no more than 10 µM throughout.
Turning to `Nc1nn2c(=O)cc(-c3ccc(Cl)cc3)[nH]c2c1-c1ccccn1` [Example 152, 2-Amino-5-(4-chlorophenyl)-3-(pyridin-2-yl)pyrazolo[1,5-a]pyrimidin-7(4H)-one], the 50% inhibitory concentration (IC50) on PASK [1], on CK2a2 and at PASK [2] was no more than 10 µM throughout.
Regarding `CC(=O)Nc1nn2c(=O)cc(-c3ccc4c(c3)OCO4)[nH]c2c1-c1ccccn1` [Example 155, N-(5-(Benzo[d][1,3]dioxol-5-yl)-7-oxo-3-(pyridin-2-yl)-4,7-dihydropyrazolo[1,5-a]pyrimidin-2-yl)acetamide], the IC50 on PASK [1], on CK2a2 and at PASK [2] was no more than 10 µM in each case.
Take `CCNc1nn2c(=O)cc(-c3ccc4c(c3)OCO4)[nH]c2c1-c1ccccn1` [Example 156, 5-(Benzo[d][1,3]dioxol-5-yl)-2-(ethylamino)-3-(pyridin-2-yl)pyrazolo[1,5-a]pyrimidin-7(4H)-one]: the IC50 on PASK [1], on CK2a2 and at PASK [2] was no more than 10 µM throughout.

For orientation: IC50 means the point on the concentration scale where inhibition reaches its midpoint.
